Assay results reported in ChEMBL document CHEMBL6092166, “Design, synthesis and enzymatic inhibition evaluation of novel 4-hydroxy Pd-C-Ⅲ derivatives as α-glucosidase and PTP1B dual-target inhibitors” (Eur J Med Chem, 2024).
Activity calls are given as the source filed them. No cut-off for these calls is given here.

Assays:
[1] = target: T1, Alpha glucosidase (Homo sapiens, UniProt O43451+P10253+P14410+Q2M2H8); assay: Inhibition of alpha-glucosidase (unknown origin) using p-NPG as substrate incubated for 15 mins by spectrophotometric analysis; assay type: protein assay
[2] = target: T2, Tyrosine-protein phosphatase non-receptor type 1 (Homo sapiens, UniProt P18031); assay: Inhibition of PTP1B (unknown origin) using pNPP as substrate preincubated for 10 mins followed by substrate addition for 20 mins by absorbance based analysis
T2 sequence (P18031 whole entry): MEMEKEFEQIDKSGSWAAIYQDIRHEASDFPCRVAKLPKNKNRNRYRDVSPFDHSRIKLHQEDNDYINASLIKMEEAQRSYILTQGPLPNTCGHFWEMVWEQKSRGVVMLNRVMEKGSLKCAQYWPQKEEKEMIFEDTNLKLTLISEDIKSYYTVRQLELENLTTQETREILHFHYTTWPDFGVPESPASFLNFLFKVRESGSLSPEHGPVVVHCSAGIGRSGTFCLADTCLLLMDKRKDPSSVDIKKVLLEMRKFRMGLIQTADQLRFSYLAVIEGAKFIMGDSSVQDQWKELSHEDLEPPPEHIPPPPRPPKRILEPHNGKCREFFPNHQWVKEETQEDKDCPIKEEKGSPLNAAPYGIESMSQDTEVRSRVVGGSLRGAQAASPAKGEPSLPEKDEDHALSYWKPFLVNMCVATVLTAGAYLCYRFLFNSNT

[3] = target: T1, Alpha glucosidase; assay: Inhibition of alpha-glucosidase (unknown origin) activity assessed as disruption of secondary structure by measuring beta-turn content at 40 uM by Circular dichroism spectra analysis (reference value: 15.8%); assay type: protein assay; parameters: scale not given: the % may be the effect or the level left
[4] = target: T1, Alpha glucosidase; assay: Inhibition of alpha-glucosidase (unknown origin) activity assessed as disruption of secondary structure by measuring beta-sheet content at 10 uM by Circular dichroism spectra analysis (reference value: 13.9%); assay type: protein assay; parameters: scale not given: the % may be the effect or the level left
[5] = target: T1, Alpha glucosidase; assay: Inhibition of alpha-glucosidase (unknown origin) activity assessed as disruption of secondary structure by measuring beta-sheet content at 30 uM by Circular dichroism spectra analysis (reference value: 13.9%); assay type: protein assay; parameters: scale not given: the % may be the effect or the level left
[6] = target: T1, Alpha glucosidase; assay: Binding affinity to alpha-glucosidase (unknown origin) using p-NPG as substrate assessed as free inhibition constant at 0 to 20 uM incubated for 15 mins by Lineweaver-Burk double reciprocal plot analysis; assay type: protein assay
[7] = target: T1, Alpha glucosidase; assay: Inhibition of alpha-glucosidase (unknown origin) activity assessed as disruption of secondary structure by measuring alpha-helix content at 40 uM by Circular dichroism spectra analysis (reference value: 40.0%); assay type: protein assay; parameters: scale not given: the % may be the effect or the level left
[8] = target: T1, Alpha glucosidase; assay: Inhibition of alpha-glucosidase (unknown origin) activity assessed as disruption of secondary structure by measuring beta-turn content at 10 uM by Circular dichroism spectra analysis (reference value: 15.8%); assay type: protein assay; parameters: scale not given: the % may be the effect or the level left
[9] = target: T1, Alpha glucosidase; assay: Inhibition of alpha-glucosidase (unknown origin) activity assessed as disruption of secondary structure by measuring alpha-helix content at 50 uM by Circular dichroism spectra analysis (reference value: 40.0%); assay type: protein assay; parameters: scale not given: the % may be the effect or the level left
[10] = target: T1, Alpha glucosidase; assay: Mixed inhibition of alpha-glucosidase (unknown origin) using p-NPG as substrate assessed as increased in Km and decreased in Vmax at 0 to 20 uM incubated for 15 mins by Lineweaver-Burk double reciprocal plot analysis; assay type: protein assay; settings: dose 0-20 µM
[11] = target: T1, Alpha glucosidase; assay: Inhibition of alpha-glucosidase (unknown origin) using p-NPG as substrate preincubated for 15 mins followed by substrate addition for 30 mins by absorbance based analysis; assay type: protein assay
[12] = target: T1, Alpha glucosidase; assay: Inhibition of alpha-glucosidase (unknown origin) activity assessed as disruption of secondary structure by measuring alpha-helix content at 30 uM by Circular dichroism spectra analysis (reference value: 40.0%); assay type: protein assay; parameters: scale not given: the % may be the effect or the level left
[13] = target: T1, Alpha glucosidase; assay: Inhibition of alpha-glucosidase (unknown origin) activity assessed as disruption of secondary structure by measuring alpha-helix content at 10 uM by Circular dichroism spectra analysis (reference value: 40.0%); assay type: protein assay; parameters: scale not given: the % may be the effect or the level left
[14] = target: T1, Alpha glucosidase; assay: Binding affinity to alpha-glucosidase (unknown origin) assessed as quenching constant by fluorescence based analysis; assay type: protein assay
[15] = target: T1, Alpha glucosidase; assay: Inhibition of alpha-glucosidase (unknown origin) activity assessed as disruption of secondary structure by measuring beta-turn content at 30 uM by Circular dichroism spectra analysis (reference value: 15.8%); assay type: protein assay; parameters: scale not given: the % may be the effect or the level left
[16] = target: T1, Alpha glucosidase; assay: Mixed inhibition of alpha-glucosidase (unknown origin) using p-NPG as substrate at 0 to 20 uM incubated for 15 mins by Lineweaver-Burk double reciprocal plot analysis; assay type: protein assay; settings: dose 0-20 µM
[17] = system: Mus musculus; assay: Reduction in blood glucose concentration in male Kunming mouse at 20 mg/kg preadministered for 40 mins and measured after 120 mins by sucrose loading test; assay type: functional, organism-based
[18] = target: T1, Alpha glucosidase; assay: Binding affinity to alpha-glucosidase (unknown origin) assessed as association constant by fluorescence based analysis; assay type: protein assay
[19] = Cytotoxicity against human HEK293 cells assessed as cell survival at 250 uM incubated for 24 hrs by MTT assay; assay type: toxicity, cell-based; settings: read-out: Survival
[20] = target: T1, Alpha glucosidase; assay: Inhibition of alpha-glucosidase (unknown origin) activity assessed as disruption of secondary structure by measuring random coil content at 40 uM by Circular dichroism spectra analysis (reference value: 27.1%); assay type: protein assay; parameters: scale not given: the % may be the effect or the level left
[21] = target: T3, Tyrosine-protein phosphatase non-receptor type 1 (Homo sapiens) (UniProt P18031); assay: Inhibition of PTP1B (unknown origin) in human HepG2 cells assessed as downregulation of PTP1B protein level at 50 uM at 40 to 60 degreeC incubated for 6 hrs by Western blot based Cellular thermal shift assay; assay type: cell-based
T3 sequence (whole entry): T2 sequence (P18031 whole entry)

[22] = target: T1, Alpha glucosidase; assay: Inhibition of alpha-glucosidase (unknown origin) activity assessed as disruption of secondary structure by measuring random coil content at 30 uM by Circular dichroism spectra analysis (reference value: 27.1%); assay type: protein assay; parameters: scale not given: the % may be the effect or the level left
[23] = target: T1, Alpha glucosidase; assay: Inhibition of alpha-glucosidase (unknown origin) activity assessed as disruption of secondary structure by measuring random coil content at 50 uM by Circular dichroism spectra analysis (reference value: 27.1%); assay type: protein assay; parameters: scale not given: the % may be the effect or the level left
[24] = target: T1, Alpha glucosidase; assay: Inhibition of alpha-glucosidase (unknown origin) activity assessed as disruption of secondary structure by measuring beta-turn content at 50 uM by Circular dichroism spectra analysis (reference value: 15.8%); assay type: protein assay; parameters: scale not given: the % may be the effect or the level left
[25] = system: Mus musculus; assay: Reduction in blood glucose concentration in male Kunming mouse assessed as decrease in glucose AUC at 20 mg/kg preadministered for 40 mins and measured after 120 mins by sucrose loading test relative to control; assay type: functional, organism-based
[26] = target: T1, Alpha glucosidase; assay: Binding affinity to alpha-glucosidase (unknown origin) assessed as collision quenching by fluorescence based analysis; assay type: protein assay
[27] = target: T1, Alpha glucosidase; assay: Binding affinity to alpha-glucosidase (unknown origin) by fluorescence based analysis; assay type: protein assay
[28] = target: T1, Alpha glucosidase; assay: Binding affinity to alpha-glucosidase (unknown origin) assessed as Stem-Volmer quenching constant by fluorescence based analysis; assay type: protein assay
[29] = target: T2, Tyrosine-protein phosphatase non-receptor type 1; assay: Inhibition of PTP1B (unknown origin)
[30] = target: T1, Alpha glucosidase; assay: Binding affinity to alpha-glucosidase (unknown origin) assessed as fluorescence intensity at 12.5 uM by fluorescence based analysis (reference value: 313.09); assay type: protein assay
[31] = target: T1, Alpha glucosidase; assay: Inhibition of alpha-glucosidase (unknown origin) activity assessed as disruption of secondary structure by measuring beta-sheet content at 40 uM by Circular dichroism spectra analysis (reference value: 13.9%); assay type: protein assay; parameters: scale not given: the % may be the effect or the level left
[32] = target: T1, Alpha glucosidase; assay: Binding affinity to alpha-glucosidase (unknown origin) using p-NPG as substrate assessed as enzyme-substrate complex inhibition constant at 0 to 20 uM incubated for 15 mins by Lineweaver-Burk double reciprocal plot analysis; assay type: protein assay; settings: dose 0-20 µM
[33] = target: T1, Alpha glucosidase; assay: Inhibition of alpha-glucosidase (unknown origin) activity assessed as disruption of secondary structure by measuring random coil content at 10 uM by Circular dichroism spectra analysis (reference value: 27.1%); assay type: protein assay; parameters: scale not given: the % may be the effect or the level left
[34] = Inhibition of alpha-amylase (unknown origin); parameters: species or system Homo sapiens
[35] = target: T1, Alpha glucosidase; assay: Inhibition of alpha-glucosidase (unknown origin) activity assessed as disruption of secondary structure by measuring beta-sheet content at 50 uM by Circular dichroism spectra analysis (reference value: 13.9%); assay type: protein assay; parameters: scale not given: the % may be the effect or the level left
[36] = target: T1, Alpha glucosidase; assay: Binding affinity to alpha-glucosidase (unknown origin) assessed as decreased fluorescence intensity by measuring peak 1 (lamda ex/lamda em: 315/375 nm) and peak 2 ((lamda ex/lamda em: 225/395 nm) by 3D fluorescence spectra analysis; assay type: protein assay

## CC(C)c1cc2cc3ccc(=O)oc3cc2o1
[1]
  IC50: 85.8 µM
[2]
  IC50: 10.8 µM

## Cc1c(C)c2c(C)cc(OCCOC(=O)/C=C/c3ccc(Cl)cc3Cl)cc2oc1=O
[3]
  Activity: 17.8%
[4]
  Activity: 15.3%
[5]
  Activity: 17.9%
[6]
  Ki: 0.25 µM
[7]
  Activity: 28.3%
[8]
  Activity: 16.3%
[9]
  Activity: 27.6%
[10]
  inhibition: Active
[11]
  IC50: 66.3 µM
[12]
  Activity: 32.2%
[13]
  Activity: 37.1%
[14]
  Kq: 9.7 10^12L/mol/s
[15]
  Activity: 17.1%
[16]
  inhibition: Active; Intersection In Second Quadrant Of Double Reciprocal Graph Observed; Compound Binds To Free Enzyme And Enzyme-Substrate Complex
[17]
  Activity: Active
[18]
  ka: 2.09 10^3L/mol
[19]
  viability at 24 h, 250 µM: 81.8%
[20]
  Activity: 35.4%
[21]
  inhibition: Active
[22]
  Activity: 32.7%
[23]
  Activity: 36.3%
[24]
  Activity: 18%
[25]
  Activity: Active
[26]
  K: 2 10^10L/mol/s
[27]
  Activity: Active; Wavelength Of Maximum Emission Peak Red Shifted From 335 Nm To 340 Nm
[28]
  KSV: 9.7 10^4L/mol
[29]
  IC50: 47 µM
[30]
  Flu intensity: 144
[31]
  Activity: 20.2%
[32]
  Kis: 0.17 µM
[33]
  Activity: 29.1%
[34]
  IC50: 30.6 µM
[35]
  Activity: 20.9%
[36]
  inhibition: Active; Peak 1 Reflected The Absorption Peak Of Tyrosine Residues And Tryptophan Residues And Peak 2 Was Fluorescence Feature Of Polypeptide Backbone Structure

## O=C(/C=C/c1ccc2ccccc2c1)OCCOc1ccc2ccc(=O)oc2c1
[11]
  IC50: > 300 µM

## O=C(/C=C/c1cccc(C(F)(F)F)c1)OCCOc1ccc2ccc(=O)oc2c1
[11]
  IC50: > 300 µM

## C[C@H]1O[C@H](O[C@H]2[C@H](O)[C@@H](O)[C@@H](O[C@H]3[C@H](O)[C@@H](O)C(O)O[C@@H]3CO)O[C@@H]2CO)[C@H](O)[C@@H](O)[C@@H]1N[C@H]1C=C(CO)[C@@H](O)[C@H](O)[C@H]1O (stereo partly drawn) [ACARBOSE]
[17]
  Activity: Active
[25]
  Activity: Active
[34]
  IC50: 17.8 µM

## O=C(OCCCCOc1ccc2ccc(=O)oc2c1)c1ccc(Cl)cc1Cl
[11]
  IC50: > 300 µM

## O=C(O)c1cc2ccc(=O)oc2cc1O
[1]
  IC50: 172.1 µM
[2]
  IC50: 8 µM

## CCCc1cc(=O)oc2cc(OCCOC(=O)/C=C/c3ccc(Cl)cc3Cl)ccc12
[11]
  IC50: > 300 µM

## Cc1cc(=O)oc2c(C)c(OCCOC(=O)/C=C/c3ccc(Cl)cc3Cl)ccc12
[11]
  IC50: > 300 µM

## CC(C)=CC(=O)O[C@@H]1c2cc3ccc(=O)oc3cc2OC(C)(C)[C@H]1OC(=O)C=C(C)C
[1]
  IC50: 79.1 µM
[2]
  IC50: 11.2 µM

## O=C(/C=C/c1ccc(Br)cc1)OCCOc1ccc2ccc(=O)oc2c1
[11]
  IC50: 263.2 µM

## COc1ccc(/C=C/C(=O)OCCOc2ccc3ccc(=O)oc3c2)cc1OC
[11]
  IC50: > 300 µM

## O=C(/C=C/c1ccccc1)OCCOc1ccc2ccc(=O)oc2c1
[11]
  IC50: 235.6 µM

## O=C(/C=C/c1ccccc1[N+](=O)[O-])OCCOc1ccc2ccc(=O)oc2c1
[11]
  IC50: 299.7 µM

## CCN(CC)c1ccc(/C=C/C(=O)OCCOc2ccc3ccc(=O)oc3c2)cc1
[11]
  IC50: > 300 µM
